Data reported in patent US20230278972A1, “SUBSTITUTED HALOALKYL SULFONANILIDE HERBICIDES” (FMC Corporation, priority 2020, published 2023).

Assays:
Format in all cases: in vivo
[1] = test system: ragweed (common ragweed, Ambrosia artemisiifolia); test: Test A postemergence, ragweed; conditions: Postemergence, 0 to 100 scale (0 no effect, 100 complete control); for Ragweed plant response rating: visual injury vs untreated controls after approx. 10 days
Procedure, shortened: (§1)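 Postemergence ratings come from foliar sprays onto one- to two-leaf plants of 2 to 10 cm grown in loam/sand; preemergence ratings come from a directed spray onto the soil of newly seeded pots. Formulation was a surfactant-containing non-phytotoxic solvent blend.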

[2] = test system: wheat (Triticum aestivum); test: Test A postemergence, wheat; conditions: Postemergence, 0 to 100 scale (0 no effect, 100 complete control); for Wheat plant response rating: visual injury vs untreated controls after approx. 10 days
Procedure, shortened: as §1

[3] = test system: Ryegrass, Italian (Italian ryegrass, Lolium multiflorum); test: Test A postemergence, Ryegrass, Italian; conditions: Postemergence, 0 to 100 scale (0 no effect, 100 complete control); for Ryegrass, Italian plant response rating: visual injury vs untreated controls after approx. 10 days
Procedure, shortened: as §1

[4] = test system: ragweed (common ragweed, Ambrosia artemisiifolia); test: Test A preemergence, ragweed; conditions: Preemergence; for Ragweed plant response rating: 125 g ai/ha, visual injury on 0 to 100 scale (0 no effect, 100 complete control), approximately 10 days; for Plant response rating, Ragweed: 500 g ai/ha, 0 to 100 scale (0 no effect, 100 complete control)
Procedure, shortened: as §1

[5] = test system: pigweed (Amaranthus retroflexus); test: Test A preemergence, pigweed; conditions: for Pigweed plant response rating: 125 g ai/ha, visual injury on 0 to 100 scale (0 no effect, 100 complete control), approximately 10 days; for Plant response rating, Pigweed: 500 g ai/ha, 0 to 100 scale (0 no effect, 100 complete control)
Procedure, shortened: as §1

[6] = test system: blackgrass (Alopecurus myosuroides); test: Test A postemergence, blackgrass; conditions: Postemergence, 0 to 100 scale (0 no effect, 100 complete control); for Blackgrass plant response rating: visual injury vs untreated controls after approx. 10 days
Procedure, shortened: as §1

[7] = test system: galium (catchweed bedstraw, Galium aparine); test: Test A postemergence, galium; conditions: Postemergence, 0 to 100 scale (0 no effect, 100 complete control); for Galium plant response rating: visual injury vs untreated controls after approx. 10 days
Procedure, shortened: as §1

corn (Zea mays) = test: Test A postemergence, corn; conditions: Postemergence, 0 to 100 scale (0 no effect, 100 complete control); for Corn plant response rating: visual injury vs untreated controls after approx. 10 days
Procedure, shortened: as §1

[8] = test system: Foxtail, Giant (giant foxtail, Setaria faberi); test: Test A preemergence, Foxtail, Giant; conditions: Preemergence; for Foxtail, Giant plant response rating: 125 g ai/ha, visual injury on 0 to 100 scale (0 no effect, 100 complete control), approximately 10 days; for Plant response rating, Foxtail, Giant: 500 g ai/ha, 0 to 100 scale (0 no effect, 100 complete control)
Procedure, shortened: as §1

[9] = test system: pigweed (Amaranthus retroflexus); test: Test A postemergence, pigweed; conditions: Postemergence, 0 to 100 scale (0 no effect, 100 complete control); for Pigweed plant response rating: visual injury vs untreated controls after approx. 10 days
Procedure, shortened: as §1

[10] = test system: barnyardgrass (Echinochloa crus-galli); test: Test A preemergence, barnyardgrass; conditions: Preemergence; for Barnyardgrass plant response rating: 125 g ai/ha, visual injury on 0 to 100 scale (0 no effect, 100 complete control), approximately 10 days; for Plant response rating, Barnyardgrass: 500 g ai/ha, 0 to 100 scale (0 no effect, 100 complete control)
Procedure, shortened: as §1

kochia (Bassia scoparia) [11] = test: Test A preemergence, kochia; conditions: Preemergence; for Kochia plant response rating: 125 g ai/ha, visual injury on 0 to 100 scale (0 no effect, 100 complete control), approximately 10 days; for Plant response rating, Kochia: 500 g ai/ha, 0 to 100 scale (0 no effect, 100 complete control)
Procedure, shortened: as §1

[12] = test system: barnyardgrass (Echinochloa crus-galli); test: Test A postemergence, barnyardgrass; conditions: Postemergence, 0 to 100 scale (0 no effect, 100 complete control); for Barnyardgrass plant response rating: visual injury vs untreated controls after approx. 10 days
Procedure, shortened: as §1

[13] = test system: Foxtail, Giant (giant foxtail, Setaria faberi); test: Test A postemergence, Foxtail, Giant; conditions: Postemergence, 0 to 100 scale (0 no effect, 100 complete control); for Foxtail, Giant plant response rating: visual injury vs untreated controls after approx. 10 days
Procedure, shortened: as §1

[14] = test system: Ryegrass, Italian (Italian ryegrass, Lolium multiflorum); test: Test A preemergence, Ryegrass, Italian; conditions: Preemergence; for Ryegrass, Italian plant response rating: 125 g ai/ha, visual injury on 0 to 100 scale (0 no effect, 100 complete control), approximately 10 days; for Plant response rating, Ryegrass, Italian: 500 g ai/ha, 0 to 100 scale (0 no effect, 100 complete control)
Procedure, shortened: as §1

kochia (Bassia scoparia) [15] = test: Test A postemergence, kochia; conditions: Postemergence, 0 to 100 scale (0 no effect, 100 complete control); for Kochia plant response rating: visual injury vs untreated controls after approx. 10 days
Procedure, shortened: as §1

[16] = 125 g ai/ha, visual injury approx. 10 days
[17] = 500 g ai/ha, visual injury, approx. 10 days

| Compound | Plant response rating, Ragweed [1, 16] | Ragweed plant response rating ([1]; 500 g ai/ha) | Plant response rating, Wheat [2, 16] | Wheat plant response rating ([2]; 500 g ai/ha) | Plant response rating, Ryegrass, Italian [3, 16] | Ryegrass, Italian plant response rating ([3]; 500 g ai/ha) | Ragweed plant response rating [4] | Plant response rating, Ragweed [4] | Pigweed plant response rating [5] | Plant response rating, Pigweed [5] | Plant response rating, Blackgrass [6, 16] | Blackgrass plant response rating ([6]; 500 g ai/ha) | Foxtail, Giant plant response rating [8] | Plant response rating, Foxtail, Giant [8] | Barnyardgrass plant response rating [10] | Plant response rating, Barnyardgrass [10] | Kochia plant response rating (kochia (Bassia scoparia) [11]) | Plant response rating, Kochia (kochia (Bassia scoparia) [11]) | Ryegrass, Italian plant response rating [14] | Plant response rating, Ryegrass, Italian [14] | also measured |
| --- | --- | --- | --- | --- | --- | --- | --- | --- | --- | --- | --- | --- | --- | --- | --- | --- | --- | --- | --- | --- | --- |
| Cc1cc(C)c(C2=NOC3CCCCC23)cc1NS(=O)(=O)C(F)(F)F (racemic) [Compound 125] | 60 | 80 | 30 | 70 | 0 | 70 | 60 | 80 | 100 | 100 | 10 | 60 | 100 | 100 | 100 | 100 | 90 | 100 | 100 | 100 | Plant response rating, Galium [7, 16]: 90; Galium plant response rating ([7]; 500 g ai/ha): 90; Plant response rating, Corn (corn (Zea mays); [16]): 0; Corn plant response rating (corn (Zea mays); 500 g ai/ha): 60; Plant response rating, Pigweed [9, 16]: 60; Pigweed plant response rating ([9]; 500 g ai/ha): 90; Plant response rating, Barnyardgrass [12, 16]: 80; Barnyardgrass plant response rating ([12]; 500 g ai/ha): 90; Plant response rating, Foxtail, Giant [13, 16]: 20; Foxtail, Giant plant response rating ([13]; 500 g ai/ha): 50; Plant response rating, Kochia (kochia (Bassia scoparia) [15]; [16]): 70; Kochia plant response rating (kochia (Bassia scoparia) [15]; 500 g ai/ha): 80 |
| C#CCN(CC#C)C(=O)c1cc(N(S(=O)(=O)C(F)(F)F)S(=O)(=O)C(F)(F)F)c(C)cc1C [Compound 181] | – | 90 | – | 80 | – | 90 | 50 | 90 | 40 | 80 | – | 30 | 100 | 100 | 90 | 100 | 60 | 100 | 80 | 90 | Plant response rating, Ragweed ([1]; 125 g ai/ha): 80; Plant response rating, Wheat ([2]; 125 g ai/ha): 50; Plant response rating, Ryegrass, Italian ([3]; 125 g ai/ha): 70; Plant response rating, Blackgrass ([6]; 125 g ai/ha): 10; Plant response rating, Galium ([7]; 125 g ai/ha): 60; Galium plant response rating ([7]; 500 g ai/ha): 70; Plant response rating, Corn (corn (Zea mays); 125 g ai/ha): 10; Corn plant response rating (corn (Zea mays); 500 g ai/ha): 80; Plant response rating, Pigweed ([9]; 125 g ai/ha): 40; Pigweed plant response rating ([9]; 500 g ai/ha): 80; Plant response rating, Barnyardgrass ([12]; 125 g ai/ha): 80; Barnyardgrass plant response rating ([12]; 500 g ai/ha): 90; Plant response rating, Foxtail, Giant ([13]; 125 g ai/ha): 60; Foxtail, Giant plant response rating ([13]; 500 g ai/ha): 90; Plant response rating, Kochia (kochia (Bassia scoparia) [15]; 125 g ai/ha): 30; Kochia plant response rating (kochia (Bassia scoparia) [15]; 500 g ai/ha): 80 |
| Cc1cc(Cl)c(NS(=O)(=O)C(F)(F)F)cc1-c1cn(C)c(=O)n(C)c1=O [Compound 29] | 80 | – | 70 | – | 70 | – | 60 | 90 | 70 | 90 | 80 | – | 100 | 100 | 40 | 100 | 40 | 90 | 90 | 100 | Plant response rating, Ragweed [1, 17]: 90; Plant response rating, Wheat [2, 17]: 70; Plant response rating, Ryegrass, Italian [3, 17]: 90; Plant response rating, Blackgrass [6, 17]: 90; Plant response rating, Galium [7, 16]: 90; Plant response rating, Galium [7, 17]: 90; Plant response rating, Corn (corn (Zea mays); [16]): 0; Plant response rating, Corn (corn (Zea mays); [17]): 10; Plant response rating, Pigweed [9, 16]: 40; Plant response rating, Pigweed [9, 17]: 50; Plant response rating, Barnyardgrass [12, 16]: 50; Plant response rating, Barnyardgrass [12, 17]: 90; Plant response rating, Foxtail, Giant [13, 16]: 90; Plant response rating, Foxtail, Giant [13, 17]: 90; Plant response rating, Kochia (kochia (Bassia scoparia) [15]; [16]): 30; Plant response rating, Kochia (kochia (Bassia scoparia) [15]; [17]): 80 |
